Data from patent US7652034B2, “Enantiomer (-) of tenatoprazole and the therapeutic use thereof” (Sidem Pharma, priority 2004, dated 2010).
Where two headings read alike, the source gives them in different places.

Legend:
[1] = doses of between 10 mg and 80 mg; previous studies; cited from earlier work
[2] = recent studies; versus omeprazole, lansoprazole and other PPIs; cited from earlier work
[3] = test system: ligature of the pylorus in the rat (gastric secretions); assay: model of ligature of the pylorus in the rat: volume and pH of gastric secretion; assay type: in vivo; details: for pharmacological effect 10 h after treatment administration: pylorus ligature, as compared to the control group
Experimental: In vivo Studies in Rats: Assessment of Volume and pH of Gastric Secretion. Studies conducted by the applicant in vivo in a model of ligature of the pylorus in the rat have investigated the pharmacological effects of the (−) and (+) isomers of tenatoprazole. In this well established and validated model, animals are pre-treated at different time points (10, 16 and 20 h) before ligature of the pylorus, and the volume and pH of the gastric secretions are measured 4 h after the ligature.

intragastric pH in dogs = assay: antisecretory effect in dogs: intragastric pH over 24 h; assay type: in vivo; details: for % of holding time for 24 hours pH > 3 / % of holding time for 24 hours pH > 4: 10 mg/kg/day
Experimental: In vivo Studies in Dogs: Assessment of the Antisecretory Effect. Studies conducted by the applicant in vivo in dogs have investigated the antisecretory effect of the (−) isomer of tenatoprazole and the (+) isomer, by measuring the intragastric pH after treatment administration for 6 days (10 mg/kg/day). The profile of intragastric pH during a 24-hour period was recorded on the first two days of administration, on the 6th day, and two days after treatment termination. These pH values were compared to those measured at baseline, prior to treatment administration. The results corresponding to the pH>3 and pH>4 holding time for 24 h, expressed in percent, are described below: […]

CYP2C19 = CYP2C19 (Homo sapiens, UniProt P33261); assay: in vitro metabolism by cytochrome: maximal rate of metabolism (Vmax); assay type: in vitro ADME; details: for Vmax (maximal rate of metabolism): in vitro
Sequence of CYP2C19 (P33261 whole entry): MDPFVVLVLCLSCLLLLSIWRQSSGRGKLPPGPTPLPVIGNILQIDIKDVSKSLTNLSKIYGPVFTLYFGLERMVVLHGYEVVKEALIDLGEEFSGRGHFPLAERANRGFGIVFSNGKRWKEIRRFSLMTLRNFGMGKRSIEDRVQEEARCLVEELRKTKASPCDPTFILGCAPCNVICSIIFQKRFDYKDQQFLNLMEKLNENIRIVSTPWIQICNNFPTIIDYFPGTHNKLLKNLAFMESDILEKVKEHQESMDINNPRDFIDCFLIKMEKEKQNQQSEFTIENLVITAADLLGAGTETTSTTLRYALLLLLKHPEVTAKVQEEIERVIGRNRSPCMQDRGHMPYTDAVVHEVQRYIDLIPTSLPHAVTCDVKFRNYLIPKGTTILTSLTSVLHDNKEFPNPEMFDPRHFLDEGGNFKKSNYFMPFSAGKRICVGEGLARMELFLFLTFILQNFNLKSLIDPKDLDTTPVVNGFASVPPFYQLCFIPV
From the text: Vmax (−) is the value of Vmax of the (−) enantiomer of tenatoprazole.

[4] = test system: cytochromes CYP3A4 and CYP2C19; assay: cytochromes that intervene in the metabolism of tenatoprazole; assay type: in vitro ADME
From the text: Further, it has been shown that different cytochromes intervene in the metabolism of tenatoprazole.

[5] = analysis of plasma enantiomers in subjects by CYP2C19 genotype; assay type: in vivo, human; details: for enantiomer in plasma: CYP2C19*2/*2 genotype, weak activity of cytochrome CYP2C19, slow metabolisers; for enantiomer in plasma (concentration): CYP2C19*1/*1 genotype, normal activity of cytochrome CYP2C19, rapid metabolisers
From the text: More particularly, the unexpected pharmacokinetic properties of the (−) enantiomer of tenatoprazole were discovered during an extensive program of pharmacokinetic and metabolism studies in vitro and in vivo.
The homozygous subjects have a very weak metabolic activity of the cytochrome CYP2C19 which is responsible for the metabolism of tenatoprazole. […] These subjects are qualified as “slow metabolisers”.

[6] = pharmacokinetic study in Caucasian subjects, acute and repeated administration (7 days) of tenatoprazole; assay type: in vivo, human
Experimental: In order to assess the difference in pharmacokinetic characteristics between the (−) enantiomer of the invention and the (+) enantiomer, a pharamcokinetic study was conducted.
Said study was carried out in Caucasian subjects, after an acute and repeated administration (7 days) of tenatoprazole. […] In contrast, it was observed that the evolution of the plasma concentration of the (+) isomer is not linear, and thus not predictive of the efficacy and the tolerability of the drug.

[7] = elimination half-life in slow metabolisers; assay type: in vivo, human; details: slow metabolisers (deficient in CYP2C19 activity)
Experimental: In another study, it was assessed that the elimination half-life of the (−) isomer of tenatoprazole is approximately 4 times shorter than that of the (+) isomer in slow metabolisers (which are deficient in CYP2C 19 activity), as summarised in the following table: […]

[8] = test system: ulcerative lesions in rats; assay: onset of healing and normalisation of histological changes of ulcerative lesions in rats; assay type: in vivo
From the text: In vivo Studies in Rats: Assessment of the Onset of Healing and the Increase of Normalisation of Histological Changes of the Lesions. […] Thus, the effect observed with the (−) enantiomer of tenatoprazole appeared 1 day before those of the (+) enantiomer. […] These changes consisted in a reduction of the ultrastructural damage resulting in a complete morphological recovery of the oesophageal epithelium.

[9] = in vivo pharmacokinetic and metabolism study in dogs
[10] = mean plasma half-life at doses between 10 mg and 80 mg; assay type: in vivo; details: human, doses of between 10 mg and 80 mg
Experimental: In contrast, previous studies have shown that the racemic mixture has a mean plasma half-life of approximately 7 hours at this range of doses

[11] = 10 h after treatment administration, gastric secretions measured 4 h after the ligature
[12] = after 7 days of treatment with tenatoprazole

COc1ccc2[nH]c([S+]([O-])Cc3ncc(C)c(OC)c3C)nc2n1 (racemic) [racemic mixture, 5-methoxy-2-[[(4-methoxy-3,5-dimethyl-2-pyridyl)methyl]sulfinyl]imidazo[4,5-b]pyridine]
mean plasma half-life [1]: approximately 7 hours | half-life in plasma compared with the other PPIs [2]: approximately seven times longer

COc1ccc2[nH]c([S@+]([O-])Cc3ncc(C)c(OC)c3C)nc2n1 (single isomer, unassigned) [(+) isomer, reference compound]
Free acid (gastric acidity, change as compared to the control group) [3, 11]: −30% | pH (change as compared to the control group) [3, 11]: +30% | pharmacological effect 10 h after treatment administration [3]: no longer significant | inhibition of gastric secretion (intragastric pH in dogs; 10 mg/kg/day for 6 days): inhibit gastric secretion | Vmax (maximal rate of metabolism) (CYP2C19): 12.63 pmol/min per pmol of cytochrome | cytochromes via which the enantiomer is metabolised [4]: mainly the CYP2C19 and, to a lesser extent, by CYP3A4 | enantiomer in plasma ([5]; listed as (+) Enantiomer): Increased | enantiomer in plasma ([5]; listed as (+) enantiomer): highly significant increase | plasma concentration versus dose [6, 12]: not linear | T1/2 (elimination half-life) [7]: 36.7 ± 4.5 h

COc1ccc2[nH]c([S+]([O-])Cc3ncc(C)c(OC)c3C)nc2n1 (single isomer, unassigned; (-)) [(−) isomer, (−)-5-methoxy-2-[[(4-methoxy-3,5-dimethyl-2-pyridyl)methyl]sulfinyl]imidazo[4,5-b]pyridine]
pharmacological effect 10 h after treatment administration [3]: remains pharmacologically active | inhibition of gastric secretion (intragastric pH in dogs; 10 mg/kg/day for 6 days): inhibit gastric secretion | time over which a significant effect is observed (intragastric pH in dogs; 10 mg/kg/day for 6 days, compared to baseline): from the first day of administration, and is maintained until two days after treatment termination | % of holding time for 24 hours pH > 3 (intragastric pH in dogs; 1st day of treatment): 73% | % of holding time for 24 hours pH > 4 (intragastric pH in dogs; 1st day of treatment): 55% | % of holding time for 24 hours pH > 3 (intragastric pH in dogs; 2nd day of treatment): 82% | % of holding time for 24 hours pH > 4 (intragastric pH in dogs; 2nd day of treatment): 75% | % of holding time for 24 hours pH > 3 (intragastric pH in dogs; 6th day of treatment): 93% | % of holding time for 24 hours pH > 4 (intragastric pH in dogs; 6th day of treatment): 75% | quality of healing (normalization of histological changes) [8]: significant increase | onset of healing of ulcerative lesions ([8]; as compared with the (+) enantiomer): significantly improved | appearance of the effect before that of the (+) enantiomer ([8]; healing of ulcerative lesions): 1 days | metabolised more slowly than the (+) enantiomer (CYP2C19; from Vmax values): approximately 7 times | Vmax (maximal rate of metabolism) (CYP2C19): 1.90 pmol/min per pmol of cytochrome | cytochromes via which the enantiomer is metabolised ([4]; human, cytochromes (CYP3A4, CYP2C19) in vitro): mainly metabolised via the cytochrome CYP3A4 | enantiomer in plasma (concentration) ([5]; listed as (−) Enantiomer): Increased | enantiomer in plasma (concentration) ([5]; listed as (−) enantiomer): higher than that of the (+) enantiomer | half-life in comparison with the (+) enantiomer [9]: significantly longer | AUC versus dose [6, 12]: linear with the dose | plasma concentration versus dose [6, 12]: linear with the dose | between-subject variability of pharmacokinetic parameters ([6]; compared to the (+) isomer): markedly lower | half-life ([7]; human, in vivo, read-out: T1/2 (elimination half-life) (converted)): 9.7 ± 0.9 h | elimination half-life shorter than that of the (+) isomer [7]: approximately 4 times | half-life [10]: 10 to 12 h
